The values that follow come from patent US6087493A, “Porphyrin compounds as telomerase inhibitors” (Regents of the University of Texas System, priority 1998, dated 2000).

The conditions of data set [1]: 25 μM; Table 9.
For the next data set, the target named is human telomerase (Homo sapiens, UniProt O14746). The data set is described as follows: Telomerase inhibition, primer extension assay in HeLa cell extract. It is filed as biochemical. To be noted: for inhibition at 25 µM: read-out: % Inhibition of telomerase.
For a further data set, the system named is sea urchin embryos. Particulars: in vivo. Here is the method: Lytechinus pictus sea urchins were purchased from Marinus Inc. (Long Beach, Calif.) and maintained at 15° C. in refrigerated aquaria containing Instant Ocean synthetic sea water, following a described procedure [Vafa, 1996 #300]. For polyspermic fertilization, 0.01 vol freshly prepared stock sperm suspension (25 ml ASW containing 2 ml undiluted semen) was added to the eggs suspended for 10 min at 1% concentration in ASW adjusted to pH 9.0 with NH4 OH and stirred at 60 rpm with motor-driven Teflon paddles. Ten min after insemination, the fertilized eggs were allowed to settle, and the supernatant ASW containing sperm was aspirated and replaced with fresh ASW. The embryos were cultured at 18° C. Twenty min after fertilization TMPyP4 or TMPyP4.Pt^II (100 μM final concentration) was added from a concentrated stock in DMSO to 1% embryo suspensions. Equivalent amounts of DMSO (final 0.1%) were added to control egg suspensions. At measured times after insemination, the embryos were pelleted by centrifugation and resuspended in Carnoy's fixative (ethanol:acetic acid, 3:1) for at least 1 hr. After fixation the embryos were pelleted and resuspended successively in: (1) ethanol:acetic acid, 1:1 for 5-15 min: (2) 45% acetic acid for 5-15 min; (3) room temperature 1 N HCl for 1-2 min: (4) 60° C. 1 N HCl for 7-8 min; (5) room temperature 1 N HCl for 1-2 min; (6) Schiffs reagent for 90-120 min; and (7) 45% acetic acid before affixing the embryos to microscope slides. Embryo samples were placed on microscope slides, covered with coverslips, and frozen on a bed of dry ice. After at least 30 min, the coverslips were popped off using a razor blade and the slides were immediately plunged into Coplin jars containing 95% ethanol for 5-10 min. The slides were then transferred to Coplin jars containing 100% ethanol for 3-5 min. After removing the slides and allowing them to air dry, the embryos were mounted with one drop Permount (Fisher) under a coverglass.
The inventors examined whether treatment of the embryos with G-quadroplex interactive agents can cause observable chromosomal abnormalities. A time course of the embryo development was followed in the presence of 10 μM and 100 μM concentrations of TMPyP4 or TMPyP4.Pt^II.

Another data set deals with PC3. The data set is described as follows: Cytotoxicity (MTT) PC3. Particulars: pc3 cells. It is filed as cell-based, human. The method, then: (§1) The cells were cultured in the presence of the porphyrins incubator for 4-7 days and then treated with 3-(4,5-dimethylthiazol-2-yl)-2,5-diphenyl-tetrazolium bromide (MTT). Formazan concentration was quantitated by absorbance at 570 nm.

The test system of the next data set is MDA-231. The data set is described as follows: Cytotoxicity (MTT) MDA-231. It is filed as cell-based, human. To be noted: mda-231 cells. Here is the method:
as §1

Data set [2] deals with MCF7 human breast carcinoma cells (telomerase activity). The data set is described as follows: Telomerase activity in intact MCF7 cells cultured with porphyrin. Type of data set: cell-based. Here is the method: To determine the long-term effects of TMPyP4 on whole cells, MCF7 breast carcinoma cells were cultured in the continuous presence of 1, 10, and 100 μM TMPyP4. The porphyrin solution was freshly added to the medium from the concentrated stock at each passage of the cells (every 3-4 days). On days 4, 8, and 15, the cells were lysed and the telomerase activity was measured in the extracts.
Breast cancer cells MCF-7m, BT20, HS578t and normal HS578Bst cells were grown in culture in T75 flasks (10^6 cells/flask). […] The cells were harvested and freeze-thawed and the extracts used to measure telomerase activity using the Dynabeads method.

For a further data set, the system named is Daudi. The data set is described as follows: cells. It is filed as cell-based, human. To be noted: daudi cells. The method, then:
as §1

The subject of the next data set is HeLa. The data set is described as follows: cells. Type of data set: cell-based, human. Particulars: hela cells.
For another data set, the system named is BT-20. The data set is described as follows: Cytotoxicity (MTT) BT-20. Type of data set: cell-based, human. To be noted: bt-20 cells. The method, then: as §1
The subject of data set [3] is MCF-7M. It is filed as cell-based, human. Particulars: mcf-7m cells. Here is the method: (§2) Cytotoxicity of the compounds to human breast cancer cells in vitro was assessed using a panel of cell lines representing estrogen receptor-positive (BT20, MCF-7m), and a pair of estrogen receptor-negative, transformed breast (11S578t) and normal breast (HS578Bst) cells.
The subject of another data set is LNCap. The data set is described as follows: Cytotoxicity (MTT) LNCap. It is filed as cell-based, human. Particulars: lncap cells. The method, then:
as §1

The test system of data set [4] is telomere length in MCF7 cells. The data set is described as follows: Telomere length analysis in MCF7 cells. Type of data set: cell-based, human. Here is the method: DNA was extracted from a minimum of 5×10^6 cells by SDS, proteinase K treatment, then purified and quantitated as previously described (Strahl and Blackburn, 1991). Approximately 1 μg of total DNA was digested with Mse I; the digested DNA was size fractionated by agarose gel electrophoresis and Southern blotted. The blots were hybridized with a ^32 P-labeled 0.5 kb PCR™ DNA fragments composed of the telomere repeat d(TTAGGG), which served as a probe for the telomeres. The hybridized probe was detected by autoradiography and each lane on the film was analyzed by phosphoimage analysis (Molecular Dynamics).
Telomeres shorten at an average rate of 65-100 base pairs per cell division (Counter et al., 1992). To observe a significant effect of an agent on telomere length, e.g., shortening the telomeres by >1 kilobase in MCF7 cells (5.7 kbases), a minimum of […] population doubling times will be required.

The subject of the next data set is DU145. The data set is described as follows: Cytotoxicity (MTT) DU145. It is filed as cell-based, human. To be noted: du145 cells. The method, then: as §1
In the next data set the test system is Raji. The data set is described as follows: Cytotoxicity (MTT) Raji. Particulars: raji cells. It is filed as cell-based, human. Here is the method: as §1
The next data set relates to MCF-7. The data set is described as follows: Cytotoxicity (MTT) MCF-7. It is filed as cell-based, human. Particulars: mcf-7 cells. The method, then: as §1
The subject of another data set is HS578t. Type of data set: cell-based, human. To be noted: hs578t cells. The method, then: as §2
(§3) Thy: tritiated […] assay (n = 3 ± SEM)

Data set [5] concerns MCF-7M. Type of data set: cell-based, human. Particulars: mcf-7m cells. Here is the method: as §2, §3
The source holds these as a separate data set.

A further data set has as its system NHLF. The data set is described as follows: Cytotoxicity (MTT) NHLF normal lung fibroblasts. It is filed as cell-based. To be noted: human, nhlf cells. The method, then:
as §1
All porphyrins were obtained from Midcentury, Posen, Ill. The experimental work with porphyrins was performed under minimum exposure to light. All human tumor cell lines and normal human breast cells Hs578Bst were purchased from the American Type Culture Collection. Normal human lung fibroblasts NHLF were obtained from Clonetics Corporation. The cell lines were grown according to the suppliers' instructions.

Where two headings read alike, the source gives them in different places.

Sequence of human telomerase (O14746 whole entry): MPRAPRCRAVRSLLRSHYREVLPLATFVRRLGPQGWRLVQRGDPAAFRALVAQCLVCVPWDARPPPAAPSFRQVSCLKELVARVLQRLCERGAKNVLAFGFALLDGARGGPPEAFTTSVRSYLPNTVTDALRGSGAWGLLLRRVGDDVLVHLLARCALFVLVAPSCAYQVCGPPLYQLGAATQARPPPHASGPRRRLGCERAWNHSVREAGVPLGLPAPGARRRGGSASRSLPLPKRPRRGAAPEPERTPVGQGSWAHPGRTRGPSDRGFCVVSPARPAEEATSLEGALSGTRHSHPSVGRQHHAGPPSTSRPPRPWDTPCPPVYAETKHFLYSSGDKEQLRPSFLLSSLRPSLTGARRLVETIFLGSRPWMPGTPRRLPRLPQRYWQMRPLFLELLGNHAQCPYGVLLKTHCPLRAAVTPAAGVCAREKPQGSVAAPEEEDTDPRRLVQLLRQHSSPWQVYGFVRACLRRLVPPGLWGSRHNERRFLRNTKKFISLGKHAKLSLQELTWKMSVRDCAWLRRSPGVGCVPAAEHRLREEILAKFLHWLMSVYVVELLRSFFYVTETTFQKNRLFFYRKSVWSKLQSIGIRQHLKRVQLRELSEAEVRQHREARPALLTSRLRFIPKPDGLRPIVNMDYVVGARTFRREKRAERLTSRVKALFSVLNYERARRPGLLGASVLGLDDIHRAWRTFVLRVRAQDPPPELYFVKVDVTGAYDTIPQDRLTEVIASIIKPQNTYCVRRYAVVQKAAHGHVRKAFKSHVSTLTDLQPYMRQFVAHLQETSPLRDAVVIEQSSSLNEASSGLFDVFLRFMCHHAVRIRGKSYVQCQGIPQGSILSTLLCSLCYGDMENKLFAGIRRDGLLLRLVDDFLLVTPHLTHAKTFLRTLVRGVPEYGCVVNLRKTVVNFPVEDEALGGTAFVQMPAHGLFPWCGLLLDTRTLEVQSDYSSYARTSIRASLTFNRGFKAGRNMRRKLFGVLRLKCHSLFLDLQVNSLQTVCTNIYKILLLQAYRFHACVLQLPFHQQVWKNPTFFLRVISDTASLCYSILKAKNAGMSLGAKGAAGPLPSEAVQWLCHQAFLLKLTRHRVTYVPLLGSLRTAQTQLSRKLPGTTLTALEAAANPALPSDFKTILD

As for `O=[N+]([O-])c1cc(-c2c3nc(c(-c4ccc(Cl)c([N+](=O)[O-])c4)c4ccc([nH]4)c(-c4ccc(Cl)c([N+](=O)[O-])c4)c4nc(c(-c5ccc(Cl)c([N+](=O)[O-])c5)c5ccc2[nH]5)C=C4)C=C3)ccc1Cl` [Compound D13, 5,10,15,20-tetra-(4-chloro-3-nitrophenyl)porphine], the “% insoluble remark (solubility)” value in data set [1] was “insoluble”.

On to `O=[N+]([O-])c1cccc(-c2c3nc(cc4ccc([nH]4)c(-c4cccc([N+](=O)[O-])c4)c4nc(cc5ccc2[nH]5)C=C4)C=C3)c1` [Compound D16], for which the “% insoluble remark (solubility)” value in data set [1] is “insoluble”.

As for `C[N+](C)(C)c1ccc(-c2c3nc(c(-c4ccc([N+](C)(C)C)cc4)c4ccc([nH]4)c(-c4ccc([N+](C)(C)C)cc4)c4nc(c(-c5ccc([N+](C)(C)C)cc5)c5ccc2[nH]5)C=C4)C=C3)cc1` [TAP (B23), tetra(N,N,N-trimethyl-4-aminophenyl)porphyrin chloride], the inhibition at 25 µM at human telomerase (25 μM, Table 5) came to 6%; on human telomerase (25 μM, Table 13), 18%.

For `C[n+]1ccc(-c2c3nc(c(-c4cc[n+](C)cc4)c4ccc([n-]4)c(-c4cc[n+](C)cc4)c4nc(c(-c5cc[n+](C)cc5)c5ccc2[n-]5)C=C4)C=C3)cc1.[Cl-].[Cl-].[Cl-].[Cl-].[Pt+2]` [TMPyP4 PtII, Platinum(II)tetra(N-methyl-4-pyridyl)porphyrin chloride], the “cell number and morphology of embryos” value in the data set on sea urchin embryos was “fewer cells, many very misshapen and variable in size relative to the controls”. Besides, the “condensed chromosome length / chromosomal effects” value in the data set on sea urchin embryos is recorded as “Qualitatively similar results”. Besides, the “differences from controls in embryos” value with sea urchin embryos is reported as “no definitive differences were seen”. In addition, in the data set on sea urchin embryos, the “first signs of ciliary motility” value amounted to 9 h. Besides, in the data set with sea urchin embryos, the toxicity to embryos entry is recorded as “generally non-toxic to the embryos”. Further, the IC50 in the data set on PC3 was > 200 µM; with MDA-231 it was > 100 µM; in the data set with Daudi, 104 µM; with HeLa, 136 ± 34.8 µM; with BT-20, 262 µM; with MCF-7M [3], 74.8 ± 31.9 µM. Also, the IC50 with LNCap is 42.2 µM; at human telomerase (read-out: Telomerase Inhibition) it was 15 µM; in the data set with DU145, 1360 µM; in the data set on Raji it was 64.6 µM; in the data set on MCF-7, > 100 µM; with HS578t, 214 ± 49 µM. Besides, in the data set on MCF-7M [5], the IC50 amounted to 434 ± 386 µM. The “telomerase activity in intact MCF7 cells” value in [2] is given as “less potent inhibitor than TMPyP4”. Further, the “% Inhibition of telomerase” value on human telomerase (25 µM) is on record as 69%. Also, the “effect on telomere shortening” value in data set [4] is on record as “No detectable effects on telomere shortening”. This molecule registered a CC50 in the data set on NHLF of 11.6 µM.

Turning to `C[n+]1ccc(-c2c3nc(c(-c4cc[n+](C)cc4)c4ccc([n-]4)c(-c4cc[n+](C)cc4)c4nc(c(-c5cc[n+](C)cc5)c5ccc2[n-]5)C=C4)C=C3)cc1.[Cl-].[Cl-].[Cl-].[Cl-].[Zn+2]` [TMPyP4 ZnII], the “telomerase inhibition in words” value at human telomerase is recorded as “better inhibitors”. In addition, the “% Inhibition of telomerase” value at human telomerase (25 µM) worked out at 88%.

With “Copper(II)tetra-N-methyl-tetrazaphthalocyanine [Compound D7]”, on human telomerase, the “telomerase inhibition in words” value is given as “only slight activity”.

For the molecule “Copper(II)tetraaminophthalocyanine [Compound B14]”, on human telomerase, the “telomerase inhibition in words” value was “active”.

As for “Ethylenediamine protoporphyrin-IX [Compound B19]”, the “% Inhibition of telomerase” value at human telomerase (25 μM, Table 5) is 0%.
